Test results published in patent US20090069370A1, “AZACYCLYLISOQUINOLINONE AND ISOINDOLINONE DERIVATIVES AS HISTAMINE-3 ANTAGONISTS” (Wyeth, priority 2007, published 2009).
Structures can show the parent of a compound that is named as a salt.

Row | SMILES | melting point [°C]
1 | O=C(c1ccc(-c2ccc3c(c2)CCN([C@@H]2CCN(CC4CC4)C2)C3=O)cc1)N1CCCC1 (as salt: hydrochloride) [Example 58, 2-[(3R)-1-(cyclopropylmethyl)pyrrolidin-3-yl]-6-[4-(pyrrolidin-1-ylcarbonyl)phenyl]-3,4-dihydroisoquinolin-1(2H)-one] | 287 to 288
2 | O=C1c2ccc(-c3ccccc3)cc2CCN1[C@@H]1CCN(C2CCC2)C1 (as salt: hydrochloride) [Example 50, 2-[(3R)-1-cyclobutylpyrrolidin-3-yl]-6-phenyl-3,4-dihydroisoquinolin-1(2H)-one] | > 255
3 | O=C(c1ccc(-c2ccc3c(c2)CCN([C@@H]2CCN(Cc4cccs4)C2)C3=O)cc1)N1CCCC1 (as salt: hydrochloride) [Example 62, 6-[4-(pyrrolidin-1-ylcarbonyl)phenyl]-2-[(3R)-1-(thiophen-2-ylmethyl)pyrrolidin-3-yl]-3,4-dihydroisoquinolin-1(2H)-one] | 249 to 250
4 | C[C@H]1CCCN1C(=O)c1ccc(-c2ccc3c(c2)CCN([C@@H]2CCN(C4CCC4)C2)C3=O)c(F)c1 (as salt: hydrochloride) [Example 73, 2-[(3R)-1-cyclobutylpyrrolidin-3-yl]-6-(2-fluoro-4-{[(2S)-2-methylpyrrolidin-1-yl]carbonyl}phenyl)-3,4-dihydroisoquinolin-1(2H)-one] | 212 to 213
5 | CCNC(=O)c1ccc(-c2ccc3c(c2)CCN([C@@H]2CCN(C4CCCC4)C2)C3=O)cc1 (as salt: hydrochloride) [Example 42, 4-{2-[(3R)-1-cyclopentylpyrrolidin-3-yl]-1-oxo-1,2,3,4-tetrahydroisoquinolin-6-yl}-N-ethylbenzamide] | > 200
6 | C[C@@H]1CCCN1C(=O)c1ccc(-c2ccc3c(c2)CCN([C@@H]2CCN(C4CCC4)C2)C3=O)c(F)c1 (as salt: hydrochloride) [Example 76, 2-[(3R)-1-cyclobutylpyrrolidin-3-yl]-6-(2-fluoro-4-{[(2R)-2-methylpyrrolidin-1-yl]carbonyl}phenyl)-3,4-dihydroisoquinolin-1(2H)-one] | 239 to 241
7 | CC(C)N1CC[C@@H](N2CCc3cc(-c4ccc(C(=O)N5CCCC5)cc4F)ccc3C2=O)C1 (as salt: hydrochloride) [Example 84, 6-[2-fluoro-4-(pyrrolidin-1-ylcarbonyl)phenyl]-2-[(3R)-1-isopropylpyrrolidin-3-yl]-3,4-dihydroisoquinolin-1(2H)-one] | 249 to 250
8 | O=C(c1ccc(-c2ccc3c(c2)CCN([C@@H]2CCCN(C4CCCC4)C2)C3=O)cc1)N1CCCC1 (as salt: hydrochloride) [Example 71, 2-[(3R)-1-cyclopentylpiperidin-3-yl]-6-[4-(pyrrolidin-1-ylcarbonyl)phenyl]-3,4-dihydroisoquinolin-1(2H)-one] | > 250
9 | CCN1CCC(N2Cc3cc(-c4ccc(C#N)cc4)ccc3C2=O)CC1 (as salt: hydrochloride) [Example 24, 4-[2-(1-Ethylpiperidin-4-yl)-1-oxo-2,3-dihydro-1H-isoindol-5-yl]benzonitrile] | > 300
10 | CN(C)C(=O)c1ccc(-c2ccc3c(c2)CCN([C@@H]2CCN(C4CCC4)C2)C3=O)cc1 (as salt: hydrochloride) [Example 46, 4-{2-[(3R)-1-cyclobutylpyrrolidin-3-yl]-1-oxo-1,2,3,4-tetrahydroisoquinolin-6-yl}-N,N-dimethylbenzamide] | 211 to 212
11 | O=C(NC1CC1)c1ccc(-c2ccc3c(c2)CCN([C@@H]2CCN(C4CCC4)C2)C3=O)c(F)c1 (as salt: hydrochloride) [Example 81, 4-{2-[(3R)-1-cyclobutylpyrrolidin-3-yl]-1-oxo-1,2,3,4-tetrahydroisoquinolin-6-yl}-N-cyclopropyl-3-fluorobenzamide] | > 200
12 | CCNC(=O)c1ccc(-c2ccc3c(c2)CCN([C@@H]2CCN(C(C)C)C2)C3=O)cc1 (as salt: hydrochloride) [Example 83, N-ethyl-4-{2-[(3R)-1-isopropylpyrrolidin-3-yl]-1-oxo-1,2,3,4-tetrahydroisoquinolin-6-yl}benzamide] | > 270
13 | CNC(=O)c1ccc(-c2ccc3c(c2)CCN([C@@H]2CCN(C(C)C)C2)C3=O)cc1 (as salt: hydrochloride) [Example 82] | > 275
14 | O=C(c1ccc(-c2ccc3c(c2)CCN([C@@H]2CCN(Cc4ccoc4)C2)C3=O)cc1)N1CCCC1 (as salt: hydrochloride) [Example 60, 2-[(3R)-1-(furan-3-ylmethyl)pyrrolidin-3-yl]-6-[4-(pyrrolidin-1-ylcarbonyl)phenyl]-3,4-dihydroisoquinolin-1(2H)-one] | 254 to 256
15 | CCNC(=O)c1ccc(-c2ccc3c(c2)CCN([C@@H]2CCN(C4CCC4)C2)C3=O)c(F)c1 (as salt: hydrochloride) [Example 77, 4-{2-[(3R)-1-cyclobutylpyrrolidin-3-yl]-1-oxo-1,2,3,4-tetrahydroisoquinolin-6-yl}-N-ethyl-3-fluorobenzamide] | > 205
16 | N#Cc1ccc(-c2ccc3c(c2)CN(C2CCN(CC4CCCC4)CC2)C3=O)cc1 (as salt: hydrochloride) [Example 27, 4-{2-[1-(Cyclopentylmethyl)piperidin-4-yl]-1-oxo-2,3-dihydro-1H-isoindol-5-yl}benzonitrile] | > 300
17 | O=C1NCCc2cc(-c3ccc4c(c3)CCN([C@@H]3CCN(C5CCC5)C3)C4=O)ccc21 (as salt: hydrochloride) [Example 89, (R)-2-(1-cyclobutylpyrrolidin-3-yl)-3,3′,4,4′-tetrahydro-6,6′-biisoquinoline-1,1′(2H,2′H)-dione hydrochloride] | > 274
18 | O=C(c1ccc(-c2ccc3c(c2)CCN(C2CCN(Cc4ccccc4)CC2)C3=O)cc1)N1CCCC1 [Example 63, 2-(1-benzylpiperidin-4-yl)-6-(4-(pyrrolidine-1-carbonyl)phenyl)-3,4-dihydroisoquinolin-1(2H)-one] | 197 to 198
19 | O=C(c1ccc(-c2ccc3c(c2)CCN([C@@H]2CCN(C4CCC4)C2)C3=O)cc1Cl)N1CCCC1 (as salt: hydrochloride) [Example 49, 6-[3-chloro-4-(pyrrolidin-1-ylcarbonyl)phenyl]-2-[(3R)-1-cyclobutylpyrrolidin-3-yl]-3,4-dihydroisoquinolin-1(2H)-one] | 198 to 200

Other lines, results leading:

Row | melting point [°C] | SMILES
20 | 284 to 286 | O=C(c1ccc(COc2ccc3c(c2)CCN(C2CCN(C4CCC4)CC2)C3=O)cc1)N1CCCC1 (as salt: hydrochloride) [Example 20, 2-(1-Cyclobutylpiperidin-4-yl)-6-{[4-(pyrrolidin-1-ylcarbonyl)benzyl]oxy}-3,4-dihydroisoquinolin-1(2H)-one]
21 | 309 to 311 | CC(C)NC(=O)c1ccc(Oc2ccc3c(c2)CCN(C2CCN(C4CCC4)CC2)C3=O)cc1 (as salt: hydrochloride) [Example 6, 4-{[2-(1-Cyclobutylpiperidin-4-yl)-1-oxo-1,2,3,4-tetrahydroisoquinolin-6-yl]oxy}-N-isopropylbenzamide]
22 | 249 to 251 | CCN(CC)C(=O)c1ccc(Oc2ccc3c(c2)CCN(C2CCN(C4CCC4)CC2)C3=O)cc1 (as salt: hydrochloride) [Example 11, 4-{[2-(1-Cyclobutylpiperidin-4-yl)-1-oxo-1,2,3,4-tetrahydroisoquinolin-6-yl]oxy}-N,N-diethylbenzamide]
23 | > 300 | O=C(NC1CCCC1)c1ccc(Oc2ccc3c(c2)CCN(C2CCN(C4CCC4)CC2)C3=O)cc1 (as salt: hydrochloride) [Example 9, 4-{[2-(1-Cyclobutylpiperidin-4-yl)-1-oxo-1,2,3,4-tetrahydroisoquinolin-6-yl]oxy}-N-cyclopentylbenzamide]
24 | 307 to 309 | O=C(NC1CC1)c1ccc(Oc2ccc3c(c2)CCN(C2CCN(C4CCC4)CC2)C3=O)cc1 (as salt: hydrochloride) [Example 7, 4-{[2-(1-Cyclobutylpiperidin-4-yl)-1-oxo-1,2,3,4-tetrahydroisoquinolin-6-yl]oxy}-N-cyclopropylbenzamide]
25 | 292 to 294 | CN(C)C(=O)c1ccc(COc2ccc3c(c2)CCN(C2CCN(C4CCC4)CC2)C3=O)cc1 (as salt: hydrochloride) [Example 18, 4-({[2-(1-Cyclobutylpiperidin-4-yl)-1-oxo-1,2,3,4-tetrahydroisoquinolin-6-yl]oxy}methyl)-N,N-dimethylbenzamide]
26 | 307 to 309 | CCNC(=O)c1ccc(COc2ccc3c(c2)CCN(C2CCN(C4CCC4)CC2)C3=O)cc1 (as salt: hydrochloride) [Example 17, 4-({[2-(1-Cyclobutylpiperidin-4-yl)-1-oxo-1,2,3,4-tetrahydroisoquinolin-6-yl]oxy}methyl)-N-ethylbenzamide]
27 | 269 to 270 | COC(=O)c1ccc(Oc2ccc3c(c2)CCN(C2CCN(C4CCC4)CC2)C3=O)cc1 (as salt: hydrochloride) [Example 1, methyl 4-{[2-(1-Cyclobutylpiperidin-4-yl)-1-oxo-1,2,3,4-tetrahydroisoquinolin-6-yl]oxy}benzoate]
28 | 317 to 318 | CCNC(=O)c1ccc(Oc2ccc3c(c2)CCN(C2CCN(C4CCC4)CC2)C3=O)cc1 (as salt: hydrochloride) [Example 5, 4-{[2-(1-Cyclobutylpiperidin-4-yl)-1-oxo-1,2,3,4-tetrahydroisoquinolin-6-yl]oxy}-N-ethylbenzamide]
29 | 206 to 208 | CNC(=O)c1ccc(Oc2ccc3c(c2)CCN([C@@H]2CCN(C4CCC4)C2)C3=O)cc1 (as salt: hydrochloride) [Example 33, 4-({2-[(3R)-1-cyclobutylpyrrolidin-3-yl]-1-oxo-1,2,3,4-tetrahydroisoquinolin-6-yl}oxy)-N-methylbenzamide]
30 | 153 to 154 | CCNC(=O)c1ccc(Oc2ccc3c(c2)CCN([C@@H]2CCN(C4CCC4)C2)C3=O)cc1 (as salt: hydrochloride) [Example 34, 4-({2-[(3R)-1-cyclobutylpyrrolidin-3-yl]-1-oxo-1,2,3,4-tetrahydroisoquinolin-6-yl}oxy)-N-ethylbenzamide]
